The values that follow come from patent publication US12268674B2, “Mi-2β inhibitor as an immunotherapy agent” (BioVentures, LLC, priority 2021, dated 2025).

The IC50 is the concentration at which inhibition is half-maximal.

Test [1] deals with Mi-2β function (CXCL9, CXCL10, IRF1 expression) in A375 cells. Description: Cell-based assay of inhibitory activity on Mi-2β function, A375. The following applies: summary of Table 3 (A375 and B16). As to the method:
The total RNA was extracted with QIAGEN RNeasy kit […] for cDNA synthesis with SuperScript II Reverse Transcriptase (Invitrogen). In total, 40 ng cDNA was used for quantitative real-time PCR amplification by TaqMan Gene Expression Master Mix (Thermo Fisher Scientific). The relative transcript levels were normalized with GAPDH expression. The data were calculated with the comparative CT method.

The subject of test [2] is melanoma. The following applies: clinical data; cited from earlier work.
Test [3] has as its target T1, recombinant purified human Mi-2β protein (Homo sapiens, UniProt Q14839).
T1 construct: made in house
Description: FRET-based nucleosome repositioning assay (EpiDyne-FRET). The format is biochemical. The following applies: FRET-based nucleosome repositioning assay; read-out: IC50 against Mi-2β. The procedure:
To screen small molecules that inhibit Mi-2β activity, Homology Modeling was carried out using Structure Prediction Wizard in Prime (49, 50). Mi-2β belongs to the CHD family of chromatin remodelers, which share highly conserved ATPase/helicase domains (51, 52). The Homology Model of Mi-2β was generated using the yeast CHD1 structure (PDB code: 3MWY) as template and the sequence was obtained from Uniprot (53), which clearly depicted the interaction of Mi-2β binding pocket and ATP (FIG. 10a). Virtual screening was done with the enzyme hinge region ligands database and nucleoside mimetic database from Enamine. All ligands of ˜23,010 compounds were docked to the ATP binding site using SP docking and post-processed with Prime MM-GBSA. Ligands with a methyldihydroimidazopyridinone structure were predicted to bind best to the ATP binding region of Mi-2β. To analyze biochemically the inhibitory activity of those inhibitors, a Fluorescence Resonance Energy Transfer (FRET)-based nucleosome repositioning assay (54, 55) was designed and modified using recombinant purified human Mi-2β protein to screen an in-house library of small molecular compounds with a methyldihydroimidazopyridinone structure (FIG. 10b). Briefly, the recombinant nucleosome substrates consist of a Cy5-labeled human histone octamer (H2A T120C-Cy5) wrapped with 5′ Cy3-labeled DNA, which contains a terminal nucleosome 601 positioning sequence. The 601 sequence provides the most thermodynamically preferred locations on DNA for histone octamer (56). FRET signaling was monitored by exciting the nucleosomes at the Cy3 absorption maximum and measuring Cy5 emissions and consequently the FRET signal is at a maximum at the assembled starting point. In the presence of ATP, Mi-2β induces the histone octamer to translocate along the DNA such that the Cy3-labeled DNA 5′ end is moved away from the Cy5-labeled octamer and consequently the FRET signal is decreased (FIG. 10b). The reaction conditions for nucleosome repositioning were modified through multiple rounds of optimization and validation (FIG. 10c-d). […]

T1 sequence (Q14839 whole entry): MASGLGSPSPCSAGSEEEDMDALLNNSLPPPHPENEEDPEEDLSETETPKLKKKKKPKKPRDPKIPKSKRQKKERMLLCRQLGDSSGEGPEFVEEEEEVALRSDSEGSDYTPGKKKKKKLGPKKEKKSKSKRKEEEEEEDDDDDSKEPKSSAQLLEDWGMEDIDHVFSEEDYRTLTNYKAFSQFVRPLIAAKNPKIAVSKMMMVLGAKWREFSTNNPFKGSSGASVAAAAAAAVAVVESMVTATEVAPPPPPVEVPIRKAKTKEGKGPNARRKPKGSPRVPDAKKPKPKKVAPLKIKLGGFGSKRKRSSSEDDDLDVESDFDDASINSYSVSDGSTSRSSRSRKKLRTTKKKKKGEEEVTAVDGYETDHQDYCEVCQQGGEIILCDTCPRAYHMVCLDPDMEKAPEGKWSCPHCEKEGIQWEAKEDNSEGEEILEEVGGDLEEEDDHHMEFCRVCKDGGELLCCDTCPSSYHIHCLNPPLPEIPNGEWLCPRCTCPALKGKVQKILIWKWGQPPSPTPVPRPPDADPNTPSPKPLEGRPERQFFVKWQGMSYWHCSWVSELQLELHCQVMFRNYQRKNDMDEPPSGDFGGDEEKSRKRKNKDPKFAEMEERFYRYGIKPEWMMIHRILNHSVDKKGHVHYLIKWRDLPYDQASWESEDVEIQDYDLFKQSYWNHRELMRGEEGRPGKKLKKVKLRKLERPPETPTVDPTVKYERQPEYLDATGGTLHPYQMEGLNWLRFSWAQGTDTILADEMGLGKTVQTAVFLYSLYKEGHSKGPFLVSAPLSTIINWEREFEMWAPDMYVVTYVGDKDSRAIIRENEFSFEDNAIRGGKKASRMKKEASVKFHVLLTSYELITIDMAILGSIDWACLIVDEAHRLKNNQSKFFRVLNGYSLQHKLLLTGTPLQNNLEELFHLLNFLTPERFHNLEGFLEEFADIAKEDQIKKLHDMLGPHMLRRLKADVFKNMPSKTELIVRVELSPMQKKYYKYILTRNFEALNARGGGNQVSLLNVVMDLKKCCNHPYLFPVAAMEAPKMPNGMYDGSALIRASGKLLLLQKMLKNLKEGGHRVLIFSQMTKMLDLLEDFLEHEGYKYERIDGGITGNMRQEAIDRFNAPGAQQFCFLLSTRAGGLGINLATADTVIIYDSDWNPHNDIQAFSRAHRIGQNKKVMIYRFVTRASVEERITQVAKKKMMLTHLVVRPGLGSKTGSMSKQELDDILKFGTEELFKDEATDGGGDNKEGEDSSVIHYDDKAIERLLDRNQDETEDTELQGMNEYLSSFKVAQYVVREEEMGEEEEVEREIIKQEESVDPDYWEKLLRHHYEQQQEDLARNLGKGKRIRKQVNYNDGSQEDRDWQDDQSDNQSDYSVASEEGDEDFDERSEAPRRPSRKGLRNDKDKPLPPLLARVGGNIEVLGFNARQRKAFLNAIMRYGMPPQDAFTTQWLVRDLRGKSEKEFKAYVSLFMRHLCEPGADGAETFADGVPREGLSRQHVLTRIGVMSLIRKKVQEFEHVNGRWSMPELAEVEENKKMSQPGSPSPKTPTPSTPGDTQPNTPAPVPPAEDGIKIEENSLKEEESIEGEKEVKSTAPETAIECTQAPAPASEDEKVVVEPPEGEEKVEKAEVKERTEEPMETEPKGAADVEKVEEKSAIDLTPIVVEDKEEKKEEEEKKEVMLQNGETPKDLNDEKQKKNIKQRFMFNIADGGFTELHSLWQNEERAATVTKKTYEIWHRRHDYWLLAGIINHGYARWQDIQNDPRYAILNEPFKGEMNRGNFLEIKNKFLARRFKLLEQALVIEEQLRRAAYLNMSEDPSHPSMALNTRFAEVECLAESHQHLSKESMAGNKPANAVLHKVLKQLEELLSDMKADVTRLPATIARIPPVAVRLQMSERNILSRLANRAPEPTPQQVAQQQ

Take `O=C(NC1CCn2ccnc2C1)c1cccc(-c2cnc3[nH]c(=O)n(Cc4cccc(C(F)(F)F)c4)c3c2)c1` (stereo not shown) [ZW-7-059]: in test [1], the “inhibitory activity on Mi-2β function (enhanced expression of IFN-γ-responsive genes)” value (“inhibitory activity on Mi-2β function” for short) is “high inhibitory activity”.

For the molecule pembrolizumab: anti-PD-1 antibody, in test [2], the “melanoma patients that respond” value was 33%.

On to `Cn1c(=O)n(C)c2ncc(-c3cccc(C(=O)NC4CCn5ccnc5C4)c3)cc21` (stereo not shown) [ZW-7-023], for which the “inhibitory activity on Mi-2β function” value in test [1] is on record as “high inhibitory activity”.

As to ipilimumab: anti-CTLA-4 antibody, the “melanoma patients that respond” value in test [2] is given as 20%.

As for `Cc1c(C(=O)NC2CCn3ccnc3C2)cccc1-c1cnc2[nH]c(=O)n(C)c2c1` (stereo not shown) [SJW-6-004], the “inhibitory activity on Mi-2β function” value in test [1] is listed as “high inhibitory activity”.

As for `Cn1c(=O)[nH]c2ncc(-c3cccc(C(=O)NC4CCn5ccnc5C4)c3)cc21` (stereo not shown) [Z36], the IC50 in test [3] turned out to be 6.97 ± 2.07 µM. The “inhibitory activity on Mi-2β function” value in test [1] was “high inhibitory activity”.
